Source: the NIST ThermoML archive (doi:10.1016/j.jct.2015.12.001)
± gives the expanded uncertainty stated by the source.

Test: wn = mass fraction of the nth substance listed
Conditions: 100 kPa, Liquid, Concentric cylinders viscometry

Structure (SMILES): CCN(CC)CCO [(diethylamino)ethanol] + O
- viscosity (303.2 K, w1 = 0.3001): 2.96 ± 0.34 mPa·s
- viscosity (303.2 K, w1 = 0.3499): 3.34 ± 0.34 mPa·s
- viscosity (303.2 K, w1 = 0.4001): 4.56 ± 0.34 mPa·s
- viscosity (303.2 K, w1 = 0.4501): 5.06 ± 0.34 mPa·s
- viscosity (303.2 K, w1 = 0.4999): 6.11 ± 0.34 mPa·s
- viscosity (303.2 K, w1 = 0.6001): 8.41 ± 0.35 mPa·s
- viscosity (313.2 K, w1 = 0.3001): 2.12 ± 0.34 mPa·s
- viscosity (313.2 K, w1 = 0.3499): 2.36 ± 0.34 mPa·s
- viscosity (313.2 K, w1 = 0.4001): 3.12 ± 0.34 mPa·s
- viscosity (313.2 K, w1 = 0.4501): 3.65 ± 0.34 mPa·s
- viscosity (313.2 K, w1 = 0.4999): 4.33 ± 0.34 mPa·s
- viscosity (313.2 K, w1 = 0.6001): 5.52 ± 0.34 mPa·s
- viscosity (323.2 K, w1 = 0.3001): 1.59 ± 0.34 mPa·s
- viscosity (323.2 K, w1 = 0.3499): 1.81 ± 0.34 mPa·s
- viscosity (323.2 K, w1 = 0.4001): 2.23 ± 0.34 mPa·s
- viscosity (323.2 K, w1 = 0.4501): 2.69 ± 0.34 mPa·s
- viscosity (323.2 K, w1 = 0.4999): 3.07 ± 0.34 mPa·s
- viscosity (323.2 K, w1 = 0.6001): 3.74 ± 0.34 mPa·s
